# Assays:
# [1] = system: Staphylococcus aureus-SMITH (GC 4543); assay: acute lethal infection in mice; type: in vivo; conditions: acute lethal infection, female CD-1 mice, intraperitoneal challenge, intravenous 30 min. after infection, 7 day survival
# Outline: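 ED50 from 7 day survival ratios pooled over 3 separate tests. Female CD-1 mice, 20+/−2 gm, ip bacterial challenge (trypticase soy broth or hog gastric mucin) lethal to untreated controls in 24-48 hr; iv dosing 30 min after infection in saline or 5% dextrose, n=5/dose.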
# Escherichia coli = assay: in vitro antibacterial evaluation, MIC by broth dilution; type: cell-based; conditions: 18 hours at 35° C.
# Outline: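 MIC is the lowest antibiotic concentration (tested 64-0.06 μg/mL) preventing growth of a 5×10^5 CFU/mL inoculum. Determined by broth dilution in Mueller-Hinton II medium following NCCLS standard M7-A2.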
# [2] = anatomic pathology (histopathology of heart and kidney) in mice; type: in vivo; conditions: CD-1 mice, 20 mg/kg intravenously daily for 9 days, necropsy day 10, microscopic histopathology
# Protocol: Samples of tissues from necropsied mice were formalin-fixed, paraffin-embedded, sectioned, stained with hematoxylin and eosin, and examined microscopically. Histopathologic findings were recorded. These findings were subjectively graded on a scale corresponding to slight, mild, moderate, marked and severe as compared to untreated controls.
# Enterococcus sp. = assay: in vitro antibacterial evaluation, MIC by broth dilution; type: cell-based; conditions: broth dilution, 18 hours at 35° C.
# Outline: (§1)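 Test organisms, which included recent clinical isolates resistant to methicillin, penicillin and/or vancomycin, were inoculated at 5×10^5 CFU/mL into Muller-Hinton II […] containing antibiotic at 64-0.06 μg/mL. Minimum inhibitory concentrations were then read as the lowest level inhibiting growth.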
# Staphylococcus sp. = assay: as above; type: cell-based; conditions: broth dilution, 18 hours at 35° C.
# Outline: as §1
# Streptococcus sp. = assay: as above; type: cell-based; conditions: broth dilution, 18 hours at 35° C.
# Outline: as §1
compound,measurement,setting,value
CC(c1ccccc1)C1NC(=O)CNC(=O)C(CO)NC(=O)C(C(O)C2CN(Cc3ccc(C(C)(C)C)cc3)C(=N)N2C2OC(CO)C(O)C(O)C2O)NC(=O)C(C(O)C2CNC(=N)N2)NC(=O)C(Cc2ccc(OC3OC(CO)C(OC4OC5COC6(OC5C(O)C4O)C4CC5CC(C4)CC6C5)C(O)C3O)cc2)NC1=O (centres unmarked) [Example 77],"median effective dose (ED50), Staphylococcus aureus-SMITH (GC 4543)",[1],4 mg/kg
same,MIC Escherichia coli (ATCC 25922),Escherichia coli,>128 µg/mL
same,MIC Escherichia coli (GC 4559),Escherichia coli,>128 µg/mL
same,MIC Escherichia coli (GC 4560),Escherichia coli,4 µg/mL
same,"Anatomical Pathology (Day 10), Heart",[2],0
same,"Anatomical Pathology (Day 10), Kidney",[2],0
same,MIC Enterococcus avium (GC 4558),Enterococcus sp.; Enterococcus avium (GC 4558),4 µg/mL
same,MIC Enterococcus faecalis (ATCC 29212),Enterococcus sp.; Enterococcus faecalis (ATCC 29212),16 µg/mL
same,MIC Enterococcus faecalis (GC 4552),Enterococcus sp.; Enterococcus faecalis (GC 4552),16 µg/mL
same,MIC Enterococcus faecalis (GC 4553),Enterococcus sp.; Enterococcus faecalis (GC 4553),8 µg/mL
same,MIC Enterococcus faecalis (GC 6189),Enterococcus sp.; Enterococcus faecalis (GC 6189),16 µg/mL
same,MIC Enterococcus faecium (GC 2243),Enterococcus sp.; Enterococcus faecium (GC 2243),8 µg/mL
same,MIC Enterococcus faecium (GC 4556),Enterococcus sp.; Enterococcus faecium (GC 4556),16 µg/mL
same,MIC Enterococcus faecium (GC 4557),Enterococcus sp.; Enterococcus faecium (GC 4557),1 to 2 µg/mL
same,MIC Enterococcus avium (GC 4558),Enterococcus sp.,4 µg/mL
same,MIC Enterococcus faecalis (ATCC 29212),Enterococcus sp.,16 µg/mL
same,MIC Enterococcus faecalis (GC 2242),Enterococcus sp.,16 µg/mL
same,MIC Enterococcus faecalis (GC 2691),Enterococcus sp.,16 µg/mL
same,MIC Enterococcus faecalis (GC 3059),Enterococcus sp.,16 µg/mL
same,MIC Enterococcus faecalis (GC 4552),Enterococcus sp.,16 µg/mL
same,MIC Enterococcus faecalis (GC 4553),Enterococcus sp.,8 µg/mL
same,MIC Enterococcus faecalis (GC 4554),Enterococcus sp.,16 to 32 µg/mL
same,MIC Enterococcus faecalis (GC 6189),Enterococcus sp.,16 µg/mL
same,MIC Enterococcus faecium (GC 2243),Enterococcus sp.,8 µg/mL
same,MIC Enterococcus faecium (GC 4556),Enterococcus sp.,16 µg/mL
same,MIC Enterococcus faecium (GC 4557),Enterococcus sp.,1 to 2 µg/mL
same,MIC Enterococcus faecalis (GC 2242),Enterococcus sp.; strain GC 2242,16 µg/mL
same,MIC Enterococcus faecalis (GC 2691),Enterococcus sp.; strain GC 2691,16 µg/mL
same,MIC Enterococcus faecalis (GC 3059),Enterococcus sp.; strain GC 3059,16 µg/mL
same,MIC Staphylococcus aureus (GC 1131),Staphylococcus sp.; strain GC 1131,16 µg/mL
same,MIC Staphylococcus aureus (GC 3053),Staphylococcus sp.; strain GC 3053,16 µg/mL
same,MIC Staphylococcus aureus (GC 4541),Staphylococcus sp.; strain GC 4541,4 to 8 µg/mL
same,MIC Staphylococcus aureus-SMITH (GC 4543),Staphylococcus sp.; strain GC 4543,8 µg/mL
same,MIC Staphylococcus aureus (GC 4544),Staphylococcus sp.; strain GC 4544,16 µg/mL
same,MIC Staphylococcus aureus (GC 4545),Staphylococcus sp.; strain GC 4545,8 µg/mL
same,MIC Staphylococcus haemolyticus (GC 4546),Staphylococcus sp.; strain GC 4546,4 to 8 µg/mL
same,MIC Coagulase Negative Staphylococcus (GC 4547),Staphylococcus sp.; strain GC 4547,4 µg/mL
same,MIC Coagulase Negative Staphylococcus (GC 4548),Staphylococcus sp.; strain GC 4548,4 µg/mL
same,MIC Coagulase Negative Staphylococcus (GC 4549),Staphylococcus sp.; strain GC 4549,4 to 8 µg/mL
same,MIC Coagulase Negative Staphylococcus (GC 4551),Staphylococcus sp.; strain GC 4551,8 µg/mL
same,MIC Coagulase Negative Staphylococcus (GC 6257),Staphylococcus sp.; strain GC 6257,2 µg/mL
same,MIC Streptococcus agalactiae (GC 4564),Streptococcus sp.,1 µg/mL
same,MIC Streptococcus pneumoniae (ATCC 6301),Streptococcus sp.,2 µg/mL
same,MIC Streptococcus pneumoniae (GC 1894),Streptococcus sp.,0.25 to 0.5 µg/mL
same,MIC Streptococcus pneumoniae (GC 4565),Streptococcus sp.,2 to 4 µg/mL
same,MIC Streptococcus pyogenes (GC 4563),Streptococcus sp.,1 µg/mL
same,MIC Streptococcus pneumoniae (ATCC 6301),Streptococcus sp.; strain ATCC 6301,2 µg/mL
same,MIC Streptococcus pyogenes (GC 4563),Streptococcus sp.; strain GC 4563,1 µg/mL
same,MIC Streptococcus agalactiae (GC 4564),Streptococcus sp.; strain GC 4564,1 µg/mL
same,MIC Streptococcus pneumoniae (GC 4565),Streptococcus sp.; strain GC 4565,2 to 4 µg/mL
